Assay results published in patent publication US9415055B2, “Cyclic amines” (H. Lundbeck A/S, priority 2012, dated 2016).

These compounds were tested against P2X7 receptor (Homo sapiens (Human), UniProt Q99572) (assay: P2X7 FLIPR assay: antagonism of BzATP response in 293 HEK cells stably expressing P2X7 receptor). Details: FLIPR fluorescence (Fluo-4), agonist BzATP, 293 HEK cells stably transfected with P2X7 receptor.
P2X7 receptor, sequence (Q99572 whole entry): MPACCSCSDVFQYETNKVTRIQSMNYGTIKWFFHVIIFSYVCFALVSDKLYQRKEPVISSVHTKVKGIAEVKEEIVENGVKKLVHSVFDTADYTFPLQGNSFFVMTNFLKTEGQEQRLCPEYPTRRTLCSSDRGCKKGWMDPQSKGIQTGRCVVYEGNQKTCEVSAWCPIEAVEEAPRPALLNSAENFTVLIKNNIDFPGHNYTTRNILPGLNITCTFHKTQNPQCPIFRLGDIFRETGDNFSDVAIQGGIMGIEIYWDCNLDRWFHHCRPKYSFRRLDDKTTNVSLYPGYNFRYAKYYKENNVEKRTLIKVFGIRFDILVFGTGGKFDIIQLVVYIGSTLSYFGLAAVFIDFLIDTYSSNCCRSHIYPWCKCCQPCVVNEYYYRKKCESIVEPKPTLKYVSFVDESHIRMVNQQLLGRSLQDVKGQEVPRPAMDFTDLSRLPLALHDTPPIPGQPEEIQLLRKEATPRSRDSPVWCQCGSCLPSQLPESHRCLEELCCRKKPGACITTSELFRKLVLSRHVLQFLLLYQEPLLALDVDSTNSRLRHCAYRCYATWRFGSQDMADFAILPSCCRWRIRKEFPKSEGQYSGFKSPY
Format: cell-based
In short: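 Antagonist IC50 derived from FLIPR Tetra Fluo-4 calcium signal evoked by BzATP. Compound pre-incubation was 30 min at room temperature on P2X7-expressing HEK293 cells, seeded 24 h before in low-serum medium and dye-loaded 30 min at 37 °C then 30 min at RT.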
Cc1ncc(C(CNC(=O)c2cccc(F)c2Cl)N2CCC(F)(F)CC2)cn1 (single isomer, unassigned; (+)) [(+)2-chloro-N-[2-(4,4-difluoro-1-piperidyl)-2-(2-methylpyrim] [(+)2-chloro-3-fluoro-N-(2-(4,4-difluoropiperidin-1-yl)-2-(2-methylpyrimidin-5-yl)ethyl)benzamide] was tested, and the IC50 was 15 nM. In the case of COc1ccc(C(CNC(=O)c2cccc(C)c2C)N2CCOCC2)cc1 (centres unmarked) [N-[2-(4-Methoxy-phenyl)-2-morpholin-4-yl-ethyl]-2,3-dimethyl-benzamide], the IC50 is reported as 47 nM. Cc1ncc(C(CNC(=O)c2cccc(Cl)c2Cl)N2CCC(C)C2)cn1 (centres unmarked) [2,3-dichloro-N-(2-(2-methylpyrimidin-5-yl)-2-(3-methylpyrrolidin-1-yl)ethyl)benzamide] was tested, and the IC50 was 1000 nM. O=C(NCC(c1ccc(C(F)(F)F)nc1)N1CCOCC1)c1c(F)cccc1Cl (single isomer, unassigned; (+)) [(+)2-chloro-6-fluoro-N-[2-morpholino-2-[6-(trifluoromethyl)-] [(+)2-chloro-6-fluoro-N-(2-morpholino-2-(6-(trifluoromethyl)pyridin-3-yl)ethyl)benzamide] gave an IC50 of 32 nM. Cc1ncc(C(CNC(=O)c2cccc(Cl)c2Cl)N2CCCCC2C(C)C)cn1 (centres unmarked) [2,3-dichloro-N-(2-(2-isopropylpiperidin-1-yl)-2-(2-methylpyrimidin-5-yl)ethyl)benzamide] showed an IC50 of 1900 nM. Work on O=C(NCC(c1ccc(C(F)F)nc1)N1CCC(F)(F)CC1)c1cccc(Cl)c1Cl (single isomer, unassigned; (+)) [(+)2,3-dichloro-N-[2-[6-(difluoromethyl)-3-pyridyl]-2-(4,4-d] [(+)2,3-dichloro-N-(2-(2-(difluoromethyl)pyridin-5-yl)-2-(4,4-difluoropiperidin-1-yl)ethyl)benzamide] yielded an IC50 of 2.4 nM. With Cc1ncc(C(CNC(=O)c2cccc(OC(F)F)c2Cl)N2CCC(F)(F)CC2)cn1 (single isomer, unassigned; (+)) [(+)2-chloro-3-(difluoromethoxy)-N-[2-(4,4-difluoro-1-piperid] [(+)2-chloro-3-(difluoromethoxy)-N-(2-(4,4-difluoropiperidin-1-yl)-2-(2-methylpyrimidin-5-yl)ethyl)benzamide] the IC50 was 7 nM. Cc1ncc(C(CNC(=O)c2cccc(Cl)c2Cl)N2CCC(F)(F)CC2)cn1 (centres unmarked) [2,3-dichloro-N-[2-(4,4-difluoro-1-piperidyl)-2-(2-methylpyri] [2,3-dichloro-N-(2-(4,4-difluoropiperidin-1-yl)-2-(2-methylpyrimidin-5-yl)ethyl)benzamide] gave an IC50 of 4.3 nM. O=C(NCC(c1cnc(C(F)F)nc1)N1CCOCC1)c1ccccc1Cl (single isomer, unassigned; (-)) [(−)2-chloro-N-[2-[2-(difluoromethyl)pyrimidin-5-yl]-2-morpho] [(−)2-chloro-N-(2-(2-(difluoromethyl)pyrimidin-5-yl)-2-morpholinoethyl)benzamide] was tested, and the IC50 was 15 nM. O=C(NCC(c1cnc(C(F)(F)F)nc1)N1CCC(F)CC1)c1cccc(Cl)c1Cl (single isomer, unassigned; (+)) [(+)2,3-dichloro-N-[2-(4-fluoro-1-piperidyl)-2-[2-(trifluorom] [(+)2,3-dichloro-N-(2-(4-fluoropiperidin-1-yl)-2-(2-(trifluoromethyl)pyrimidin-5-yl)ethyl)benzamide] was tested, and the IC50 was 3.5 nM. Cc1ncc(C(CNC(=O)c2cccc(Cl)c2Cl)N2CC3CCC2C3)cn1 (centres unmarked) [N-(2-(2-azabicyclo[2.2.1]heptan-2-yl)-2-(2-methylpyrimidin-5-yl)ethyl)-2,3-dichlorobenzamide] gave an IC50 of 3200 nM. In the case of N#Cc1ccc(Cl)c(C(=O)NCC(c2ccc(Cl)cc2)N2CCOCC2)c1 (single isomer, unassigned; (+)) [(+)2-chloro-N-[2-(4-chlorophenyl)-2-morpholino-ethyl]-5-cyan] [(+)2-chloro-N-(2-(4-chlorophenyl)-2-morpholinoethyl)-5-cyanobenzamide], the IC50 is reported as 23 nM. Compound Cc1ncc(C(CNC(=O)c2ccc(Cl)cc2Cl)N2CCC(Cl)CC2)cn1 (centres unmarked) [2,4-dichloro-N-(2-(4-chloropiperidin-1-yl)-2-(2-methylpyrimidin-5-yl)ethyl)benzamide] has an IC50 of 280 nM. Cc1ncc(C(CNC(=O)c2cccc(Cl)c2Cl)N2CCC(=O)CC2)cn1 (centres unmarked) [2,3-Dichloro-N-(2-(2-methylpyrimidin-5-yl)-2-(4-oxopiperidin-1-yl)ethyl)benzamide] was tested, and the IC50 was 19 nM. Work on O=C(NCC(c1ccc(C(F)(F)F)nc1)N1CCC(F)(F)CC1)c1c(F)cccc1Cl (single isomer, unassigned; (+)) [(+)2-chloro-6-fluoro-N-(2-(4,4-difluoropiperidin-1-yl)-2-(2-(trifluoromethyl)pyridin-5-yl)ethyl)benzamide] yielded an IC50 of 0.62 nM. For Cc1ncc(C(CNC(=O)c2c(Cl)cccc2Cl)N2CCOCC2)cn1 (centres unmarked) [2,6-dichloro-N-(2-(2-methylpyrimidin-5-yl)-2-morpholinoethyl)benzamide], the IC50 was 120 nM. COc1ccc(C(CNC(=O)c2cccc(Cl)c2Cl)N2CCOCC2)cc1 (centres unmarked) [2,3-Dichloro-N-[2-(4-methoxy-phenyl)-2-morpholin-4-yl-ethyl]-benzamide] showed an IC50 of 13 nM. With O=C(NCC(c1cnc(C(F)(F)F)nc1)N1CCOCC1)c1cccc(F)c1Cl (centres unmarked) [2-chloro-3-fluoro-N-(2-morpholino-2-(2-(trifluoromethyl)pyrimidin-5-yl)ethyl)benzamide] the IC50 was 11 nM. In the case of Cc1ncc(C(CNC(=O)c2cccc(OC(F)(F)F)c2Cl)N2CCC(F)(F)CC2)cn1 (single isomer, unassigned; (-)) [(−)2-chloro-N-[2-(4,4-difluoro-1-piperidyl)-2-(2-methylpyrim] [(−)2-chloro-N-(2-(4,4-difluoropiperidin-1-yl)-2-(2-methylpyrimidin-5-yl)ethyl)-3-(trifluoromethoxy)benzamide], the IC50 is reported as 40 nM. Work on Cc1ncc(C(CNC(=O)c2cccc(Cl)c2Cl)N2CCCOCC2)cn1 (centres unmarked) [2,3-dichloro-N-(2-(2-methylpyrimidin-5-yl)-2-(1,4-oxazepan-4-yl)ethyl)benzamide] yielded an IC50 of 29 nM. For Cc1ccc(Cl)c(C(=O)NCC(c2ccncc2)N2CCOCC2)c1 (centres unmarked) [2-Chloro-5-methyl-N-(2-morpholin-4-yl-2-pyridin-4-yl-ethyl)-benzamide], the IC50 was 2700 nM. Cc1ncc(C(CNC(=O)c2cccc(Cl)c2Cl)N2CCCCC2)cn1 (single isomer, unassigned; (-)) [(−)2,3-dichloro-N-[2-(2-methylpyrimidin-5-yl)-2-(1-piperidyl] [(−)2,3-dichloro-N-(2-(2-methylpyrimidin-5-yl)-2-(piperidin-1-yl)ethyl)benzamide] gave an IC50 of 21 nM. In the case of Cc1ncc(C(CNC(=O)c2ccccc2Cl)N2CCCC(F)(F)C2)cn1 (single isomer, unassigned; (+)) [(+)2-chloro-N-[2-(3,3-difluoro-1-piperidyl)-2-(2-methylpyrim] [(+)2-chloro-N-(2-(3,3-difluoropiperidin-1-yl)-2-(2-methylpyrimidin-5-A)ethyl)benzamide], the IC50 is reported as 85 nM. With O=C(NCC(c1cnc(C(F)(F)F)nc1)N1CCC(F)(F)CC1)c1c(Cl)cccc1Cl (single isomer, unassigned; (-)) [(−)2,6-dichloro-N-[2-(4,4-difluoro-1-piperidyl)-2-[2-(triflu] [(−)2,6-dichloro-N-(2-(4,4-difluoropiperidin-1-yl)-2-(2-(trifluoromethyl)pyrimidin-5-yl)ethyl)benzamide] the IC50 was 6.9 nM. For Cc1ncc(C(CNC(=O)c2ccccc2Cl)N2CCC(F)CC2)cn1 (single isomer, unassigned; (-)) [(−)2-chloro-N-[2-(4-fluoro-1-piperidyl)-2-(2-methylpyrimidin] [(−)2-chloro-N-(2-(4-fluoropiperidin-1-yl)-2-(2-methylpyrimidin-5-yl)ethyl)benzamide], the IC50 was 45 nM. Cc1cccc(C(=O)NCC(c2ccncc2)N2CCOCC2)c1C (centres unmarked) [2,3-Dimethyl-N-(2-morpholin-4-yl-2-pyridin-4-yl-ethyl)-benzamide] showed an IC50 of 1400 nM. Compound Cc1ncc(C(CNC(=O)c2cccc(Cl)c2Cl)N2CC(F)(F)C(F)(F)C2)cn1 (centres unmarked) [2,3-dichloro-N-(2-(2-methylpyrimidin-5-yl)-2-(3,3,4,4-tetrafluoropyrrolidin-1-yl)ethyl)benzamide] has an IC50 of 2.6 nM. Cc1ncc(C(CNC(=O)c2ccccc2Cl)N2CCOCC2)cn1 (single isomer, unassigned; (-)) [(−)2-chloro-N-[2-(2-methylpyrimidin-5-yl)-2-morpholino-ethyl] [(−)2-chloro-N-(2-(2-methylpyrimidin-5-yl)-2-morpholinoethyl)benzamide] was tested, and the IC50 was 110 nM. For O=C(NCC(c1cnc(C(F)F)nc1)N1CCOCC1)c1cccc(F)c1Cl (single isomer, unassigned; (-)) [(−)2-chloro-N-[2-[2-(difluoromethyl)pyrimidin-5-yl]-2-morpho] [(−)2-chloro-3-fluoro-N-(2-(2-(difluoromethyl)pyrimidin-5-yl)-2-morpholinoethyl)benzamide], the IC50 was 38 nM. O=C(NCC(c1cnc(C(F)F)nc1)N1CCOCC1)c1cccc(Cl)c1Cl (single isomer, unassigned; (+)) [(+)2,3-dichloro-N-[2-[2-(difluoromethyl)pyrimidin-5-yl]-2-mo] [(+)2,3-dichloro-N-(2-(2-(difluoromethyl)pyrimidin-5-yl)-2-morpholinoethyl)benzamide] was tested, and the IC50 was 3.9 nM. Compound O=C(NCC(c1cnc(C(F)(F)F)nc1)N1CCOCC1)c1ccccc1Cl (single isomer, unassigned; (+)) [(+)2-chloro-N-[2-morpholino-2-[2-(trifluoromethyl)pyrimidin-] [(+)2-Chloro-N-[2-morpholino-2-[2-(trifluoromethyl)pyrimidin-5-yl]ethyl]benzamide] has an IC50 of 30 nM. Work on CCc1ncc(C(CNC(=O)c2c(Cl)cccc2Cl)N2CCC(F)(F)CC2)cn1 (single isomer, unassigned; (+)) [(+)2,6-dichloro-N-[2-(4,4-difluoro-1-piperidyl)-2-(2-ethylpy] [(+2,6-dichloro-N-(2-(4,4-difluoropiperidin-1-yl)-2-(2-ethylpyrimidin-5-yl)ethyl)benzamide] yielded an IC50 of 15 nM.
